Results on two compounds are retold here after US20230278957A1, “TREX1 INHIBITORS AND USES THEREOF” (WAKE FOREST UNIVERSITY HEALTH SCIENCES, priority 2020, published 2023).

“Also recorded” adds a separate entry of the source. Read-outs that look alike come from different tables or passages of the source.

Holding throughout (assay type): biochemical
Assay [1] deals with T1, recombinant hTREX1(1-242)WT (hT1) (Homo sapiens, UniProt Q9NSU2).
T1 construct: recombinant hTREX1(1-242)^WT
T1 sequence (Q9NSU2 1-242): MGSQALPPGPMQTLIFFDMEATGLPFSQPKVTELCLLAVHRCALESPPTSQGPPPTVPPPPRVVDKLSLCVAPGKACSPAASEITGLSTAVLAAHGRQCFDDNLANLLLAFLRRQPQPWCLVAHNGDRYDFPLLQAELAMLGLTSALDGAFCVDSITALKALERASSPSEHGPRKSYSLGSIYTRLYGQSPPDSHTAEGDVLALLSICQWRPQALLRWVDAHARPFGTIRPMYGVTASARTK
As to the kind of experiment: fluorescence-based exonuclease assay, hTREX1 IC50 and HTS. The procedure:
FIG. 1: Determining IC50 of Candidate Compounds. […] Standard time-course reactions were prepared in 150 µL volumes containing vehicle or indicated concentrations of inhibitor (Panel A= 0.1-10 µM; Panel C= 1-50 µM), incubated 1 hr at room temperature, and 20 µL samples of each reaction taken at time-points of 0, 5, 10, 20, 30, 45, & 60 minutes and quenched in 20 µL of 15X SYBR Green. Fluorescence was measured, and fluorescence versus time plots were normalized to maximal initial fluorescence and background fluorescence. Plots were fitted with nonlinear regression, then initial velocities of each reaction interpolated and normalized to vehicle-only control reactions to give percent activity. Plots of inhibitor concentration versus percent activity were fit with nonlinear regression to interpolate compound IC50. Plots were generated in Prism (GraphPad) and combined in PowerPoint. Active compounds had IC50 determined in at least three separate experiments. Panels E-F: Gel Assay Validation of Hit Compound IC50. Several hit compounds, including those shown, had their IC50 confirmed via gel assay to validate efficacy of the fluorescence-based biochemical assay. Results of the gel and fluorescence assays were in agreement for all compounds tested. Standard time-course reactions containing nicked plasmid were prepared in 150 µL volumes with the indicated concentrations of inhibitor, and incubated at room temperature. Reaction samples were taken at indicated times, quenched, dried in vacuo, resuspended, then visualized by agarose gel electrophoresis. Control lanes containing supercoiled dsDNA plasmid (‘Plasmid’) and undegraded nicked dsDNA plasmid (‘Nicked’) are included. Low-MW residual bands are ssDNA plasmid leftover from TREX1 exonuclease activity.
We altered a reported fluorescence-based exonuclease assay^17,23 for the purposes of HTS. The assay parameters were optimized to limit materials use and maximize the dynamic range of the assay readout. We used this assay to perform a HTS of the three mentioned libraries against recombinant hTREX1(1-242)^WT, hereafter abbreviated as ‘hT1’. In the case of all libraries, compounds eliciting ≤50% activity at their indicated screening concentrations were identified as ‘candidates’.
The biochemical assay used for HTS was also applied to determining candidate IC50. Briefly, time-course reactions were performed for a range of concentrations for each candidate, and plots of fluorescence vs time were normalized to the initial fluorescence of the reaction and the plate-wide background fluorescence. This normalization helped address compounds with inherent effects on the fluorescent readout. Initial velocities were calculated from normalized plots and used to calculate percent activities relative to vehicle-only control reactions. Standard dose-response curves were then constructed to interpolate candidate IC50. […] Candidates that initially tested with IC50 ≤100 µM had their IC50 redetermined in two additional, independent experiments. […] To validate the efficacy of the fluorescence-based assay at determining IC50, several of the hit compounds had their IC50 confirmed using a gel assay previously described by our lab^23. Briefly, a dsDNA plasmid is nicked, the substrate is incubated with TREX1 which degrades off (partially or completely) the nicked strand, and the reaction is quenched in ethanol, dried in vacuo, and visualized via agarose gel electrophoresis. Example data of these validation assays is provided (FIG. 1, Panels E-F).

Assay [2] addresses T2, recombinant wild-type murine TREX1(1-242) (mT1) (Mus musculus, UniProt Q91XB0).
T2 construct: recombinant wild-type murine TREX1(1-242), hereafter ‘mT1’
T2 sequence (Q91XB0 1-242): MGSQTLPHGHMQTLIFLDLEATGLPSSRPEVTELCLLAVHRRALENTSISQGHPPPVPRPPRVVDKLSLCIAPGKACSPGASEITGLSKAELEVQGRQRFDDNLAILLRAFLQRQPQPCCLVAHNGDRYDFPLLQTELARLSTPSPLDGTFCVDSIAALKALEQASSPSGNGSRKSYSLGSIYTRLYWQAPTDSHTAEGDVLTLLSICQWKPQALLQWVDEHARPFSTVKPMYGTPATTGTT
Put plainly: fluorescence-based exonuclease assay, counter-screen against mTREX1. Conditions: up to an inhibitor concentration of 100 µM. The procedure: (§1) FIG. 3: Counter-Screening Hit Compounds Against mTREX1 and hTREX2 Enzymes. Panel A: Summary chart of lead compounds’ IC50 against hTREX1 vs mTREX1 versus hTREX2. Panels B-F: Overlay of lead compounds’ dose-response curves for hTREX1, mTREX1, and hTREX2. Dose-response curves were generated as described earlier. Each dose-response curve is representative of three IC50 experiments. Graphs were prepared in Prism (GraphPad), and figure was assembled in PowerPoint.
(§2) We were also interested in the activity of our leads against enzymes more closely related to hT1, namely murine TREX1 and the highly related human TREX2 enzyme. mTREX1 was of interest, since future studies of the lead compounds would presumably take place in a murine model. hTREX2, which also functions as a 3′➔5′ exonuclease, is primarily expressed in keratinocytes (while TREX1 expression is more ubiquitous), and its mutation is not associated with an autoimmune phenotype, but instead results in a hypermutator phenotype in the skin that is conditional upon exposure to ultraviolet radiation^10,72-74. For mTREX1, cross-activity was preferred to allow later efficacy studies in a murine model. […] We determined the IC50 of lead compounds for recombinant wild-type murine TREX1(1-242), hereafter ‘mT1’, and for recombinant wild-type human TREX2(1-236), hereafter ‘hT2’ (FIG. 2). […]

Assay [3] deals with T3, recombinant wild-type human TREX2(1-236) (hT2) (Homo sapiens, UniProt Q9BQ50).
T3 construct: recombinant wild-type human TREX2(1-236), hereafter ‘hT2’
T3 sequence (Q9BQ50 1-236): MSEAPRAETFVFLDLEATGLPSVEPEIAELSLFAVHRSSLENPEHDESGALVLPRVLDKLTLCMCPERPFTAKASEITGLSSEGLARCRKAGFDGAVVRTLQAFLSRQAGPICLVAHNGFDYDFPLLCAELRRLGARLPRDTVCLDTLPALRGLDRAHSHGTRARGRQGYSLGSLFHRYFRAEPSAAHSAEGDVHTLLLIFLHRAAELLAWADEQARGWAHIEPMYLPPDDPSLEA
As to the kind of experiment: fluorescence-based exonuclease assay, counter-screen against hTREX2. Conditions: up to an inhibitor concentration of 100 µM. As for the experimental part:
as §1, §2

The target of a further assay is T4, TREX1 (Homo sapiens, UniProt Q9NSU2).
T4 sequence (Q9NSU2 1-242): T1 sequence (Q9NSU2 1-242)
As to the kind of experiment: gel-based ssDNA degradation assay, inhibition kinetics. Conditions: 15 nM or 515 nM FAM-labeled 30-mer oligo.

[4] abbreviates: experiment 1, read-out: IC50 #1.
[5] abbreviates: experiment 2, read-out: IC50 #2.
[6] abbreviates: experiment 3, read-out: IC50 #3.
Where [7] appears, read: median of three independent experiments, read-out: Median IC50.

On to `O=C(c1ccc2nonc2c1)N1CCCCC1c1nc2cc(F)ccc2[nH]1` (stereo not drawn) [TIM218], for which, in assay [1], the “inhibition of hT1 (in words)” value was “did inhibit hT1”. Moreover, the IC50 stood at 12.7 µM in assay [1] (setting [4]), 7.6 µM in assay [1] (setting [5]), 17.8 µM in assay [1] (setting [6]) and 12.7 µM in assay [1] (setting [7]). In assay [2], the “inhibition of mT1” value was “no detectable inhibition; also recorded: does not inhibit mT1”. The “inhibition of hT2” value in assay [3] was “no detectable inhibition”.

Regarding `O=C1c2ccccc2C(=O)c2c1cc(S(=O)(=O)O)c(O)c2O` [TIM009], the IC50 in assay [1] (setting [4]) came to 0.3 µM; in assay [1] (setting [5]), 1.1 µM; in assay [1] (setting [6]), 1.5 µM; in assay [1] (setting [7]), 1.1 µM. In addition, the “mechanism of inhibition classification” value at TREX1 was “mixed inhibitor”.
